From patent EP0056152B1, “Process for the after-treatment of linen” (Henkel Kommanditgesellschaft auf Aktien, priority 1981, dated 1982)
Read-outs that look alike come from different tables or passages of the source.

Experiments:
Assay in all cases: Agar plate test with treated textile pieces (inhibition zone)
Assay type in all cases: cell-based
[1] = test system: Trichophyton mentagrophytes; conditions: 30°C; for zone of inhibition at 1000 µg/mL: azole 1 g/l in liquor with 3 g/l fabric softener; for zone of inhibition at 100 µg/mL: azole 0,1 g/l in liquor with 3 g/l fabric softener; for zone of inhibition at 200 µg/mL: azole 0,2 g/l in liquor with 3 g/l fabric softener
Method: (§1) Zur Prüfung der antimikrobiellen Wirksamkeit wurde die erfindungsgemäße Ausrüstung der Textilien wie folgt vorgenommen: • 2 x 2 cm große Textilstücke aus Baumwollköper (BW), Wolle (WO) und Nylon (NY) wurden in einer Behandlungsflotte von 20°C 10 Minuten lang bewegt und anschließend bei Raumtemperatur getrocknet. Der Behandlungsflotte waren verschiedene Azolverbindungen in unterschiedlicher Konzentration (s. Tabelle) und 3 g pro 1 Waschflotte eines handelsüblichen Wäscheweichspülmittels mit einem Gehalt an 5 Gew.-% Dimethyl-ditalgalkyl-ammoniumchlorid als textilweichmachender quartärer Ammoniumverbindung zugesetzt. Die Textilproben wurden auf mit unterschiedlichen Testkeimen beimpfte Agarplatten aufgelegt, bis zum Eintritt eines vollen Wachstums bei 30°C bebrütet und dann die antimikrobiellen Effekte abgelesen. Dabei bedeuten: • + = volles Wachstum • 0 = kein Hemmhof, kein Wachstum auf den Läppchen • Zahl = Hemmhof in mm um das Gewebe • (Zahl) = Größe des Hemmhofes mit diffuser Begrenzung in mm.
Zum Vergleich wurde die antimikrobielle Wirkung eines azolverbindungsfreien Wäschenachbehandlungsmittels geprüft. Die Ergebnisse sind in der folgenden Tabelle aufgeführt:
(§2) In einer weiteren Versuchsreihe wurden andere Azolverbindungen bei einer Anwendungskonzentration von 1 g/I Behandlungsflotte gemeinsam mit dem Wäschebehandlungsmittel der Beispiele 1 bis 7 (Konzentration 3 g/I Behandlungsflotte) eingesetzt. Auch hier wurde ein Vergleichsversuch ohne Azolverbindung durchgeführt.

Epidermophyton floccosum = conditions: azole 1 g/l in liquor with 3 g/l fabric softener, 30°C
Method: as §1, §2

Microsporum gypseum = conditions: Nannizzia gypsea, 30°C, read-out: Hemmhof in mm um das Gewebe; for zone of inhibition at 100 µg/mL: azole 0,1 g/l in liquor with 3 g/l fabric softener; for zone of inhibition at 200 µg/mL: azole 0,2 g/l in liquor with 3 g/l fabric softener
Method: as §1
(§3) Zum Vergleich wurde die antimikrobielle Wirkung eines azolverbindungsfreien Wäschenachbehandlungsmittels geprüft. Die Ergebnisse sind in der folgenden Tabelle aufgeführt: […]

Trichophyton rubrum = conditions: 30°C, read-out: Hemmhof in mm um das Gewebe; for zone of inhibition at 100 µg/mL: azole 0,1 g/l in liquor with 3 g/l fabric softener; for zone of inhibition at 200 µg/mL: azole 0,2 g/l in liquor with 3 g/l fabric softener
Method: as §1, §3

[2] = BW (Baumwollköper), read-out: Hemmhof in mm um das Gewebe
[3] = NY (Nylon), read-out: Hemmhof in mm um das Gewebe
[4] = WO (Wolle), read-out: Hemmhof in mm um das Gewebe
[5] = value in brackets, BW (Baumwollköper), read-out: Größe des Hemmhofes mit diffuser Begrenzung in mm
[6] = value in brackets, NY (Nylon), read-out: Größe des Hemmhofes mit diffuser Begrenzung in mm
[7] = value in brackets, WO (Wolle), read-out: Größe des Hemmhofes mit diffuser Begrenzung in mm

SMILES | zone of inhibition at 1000 µg/mL [1, 2] | zone of inhibition at 1000 µg/mL [1, 3] | zone of inhibition at 1000 µg/mL [1, 4] | zone of inhibition at 1000 µg/mL [1, 5] | zone of inhibition at 1000 µg/mL [1, 7] | zone of inhibition at 1000 µg/mL (Epidermophyton floccosum; [2]) | zone of inhibition at 1000 µg/mL (Epidermophyton floccosum; [4]) | zone of inhibition at 1000 µg/mL (Epidermophyton floccosum; [6]) | zone of inhibition at 100 µg/mL [1, 2] | zone of inhibition at 200 µg/mL [1, 2] | zone of inhibition at 100 µg/mL [1, 3] | zone of inhibition at 200 µg/mL [1, 3] | zone of inhibition at 100 µg/mL [1, 4] | zone of inhibition at 200 µg/mL [1, 4] | zone of inhibition at 100 µg/mL (Microsporum gypseum; BW (Baumwollköper)) | zone of inhibition at 200 µg/mL (Microsporum gypseum; BW (Baumwollköper)) | zone of inhibition at 100 µg/mL (Microsporum gypseum; NY (Nylon)) | zone of inhibition at 200 µg/mL (Microsporum gypseum; NY (Nylon)) | zone of inhibition at 100 µg/mL (Microsporum gypseum; WO (Wolle)) | zone of inhibition at 200 µg/mL (Microsporum gypseum; WO (Wolle)) | also measured
C#CC(c1ccccc1)(c1ccccc1)n1ccnc1 [compound 001] | 15 mm | 9 mm | 17 mm | 20 mm | 20 mm | 21 mm | 21 mm | 12 mm |  |  |  |  |  |  |  |  |  |  |  |  | zone of inhibition at 1000 µg/mL [1, 6]: 12 mm; zone of inhibition at 1000 µg/mL (Epidermophyton floccosum; [3]): 7 mm
CC(C)(C)C(=O)C(Oc1ccc(Cl)cc1)n1ccnc1 (centres unmarked) [compound 003] | 5 mm | 0.5 mm | 9 mm | 10 mm | 16 mm | 3 mm | 10 mm | 0.5 mm |  |  |  |  |  |  |  |  |  |  |  |  | zone of inhibition at 1000 µg/mL (Epidermophyton floccosum; [5]): 9 mm; zone of inhibition at 1000 µg/mL (Epidermophyton floccosum; [7]): 17 mm
Cc1ccccc1C1(n2ccnc2)c2ccccc2-c2ccccc21 [compound 009] | 7 mm | 10 mm | 9 mm | 10 mm | 14 mm | 10 mm | 11 mm | 10 mm |  |  |  |  |  |  |  |  |  |  |  |  | zone of inhibition at 1000 µg/mL [1, 6]: 14 mm; zone of inhibition at 1000 µg/mL (Epidermophyton floccosum; [3]): 5 mm; zone of inhibition at 1000 µg/mL (Epidermophyton floccosum; [5]): 13 mm; zone of inhibition at 1000 µg/mL (Epidermophyton floccosum; [7]): 17 mm
CC(C)(C)C(c1ccccc1)(c1ccccc1)n1ccnc1 [compound 065] |  |  |  |  |  |  |  |  | 26 mm | 28 mm | 25 mm | 26 mm | 25 mm | 28 mm | 26 mm | 28 mm | 14 mm | 25 mm | 21 mm | 25 mm | zone of inhibition at 100 µg/mL (Trichophyton rubrum; BW (Baumwollköper)): 25 mm; zone of inhibition at 200 µg/mL (Trichophyton rubrum; BW (Baumwollköper)): 29 mm; zone of inhibition at 100 µg/mL (Trichophyton rubrum; NY (Nylon)): 18 mm; zone of inhibition at 200 µg/mL (Trichophyton rubrum; NY (Nylon)): 23 mm; zone of inhibition at 100 µg/mL (Trichophyton rubrum; WO (Wolle)): 23 mm; zone of inhibition at 200 µg/mL (Trichophyton rubrum; WO (Wolle)): 28 mm
O=[N+]([O-])CC(c1c(Cl)cccc1Cl)n1cnc(Cl)n1 (centres unmarked) [compound 046] |  |  |  |  |  |  |  |  | 7 mm | 13 mm | 5 mm | 10 mm | 13 mm | 13 mm | 14 mm | 16 mm | 8 mm | 10 mm | 8 mm | 10 mm | zone of inhibition at 100 µg/mL (Trichophyton rubrum; BW (Baumwollköper)): 9 mm; zone of inhibition at 200 µg/mL (Trichophyton rubrum; BW (Baumwollköper)): 12 mm; zone of inhibition at 100 µg/mL (Trichophyton rubrum; NY (Nylon)): 4 mm; zone of inhibition at 200 µg/mL (Trichophyton rubrum; NY (Nylon)): 7 mm; zone of inhibition at 100 µg/mL (Trichophyton rubrum; WO (Wolle)): 13 mm; zone of inhibition at 200 µg/mL (Trichophyton rubrum; WO (Wolle)): 7 mm
O=[N+]([O-])CC(c1c(Cl)cccc1Cl)n1cncn1 (centres unmarked) [compound 045] |  |  |  |  |  |  |  |  | 11 mm | 16 mm | 8 mm | 12 mm | 8 mm | 11 mm | 10 mm | 20 mm | 7 mm | 14 mm | 10 mm | 12 mm | zone of inhibition at 100 µg/mL (Trichophyton rubrum; BW (Baumwollköper)): 12 mm; zone of inhibition at 200 µg/mL (Trichophyton rubrum; BW (Baumwollköper)): 25 mm; zone of inhibition at 100 µg/mL (Trichophyton rubrum; NY (Nylon)): 7 mm; zone of inhibition at 200 µg/mL (Trichophyton rubrum; NY (Nylon)): 7 mm; zone of inhibition at 100 µg/mL (Trichophyton rubrum; WO (Wolle)): 10 mm; zone of inhibition at 200 µg/mL (Trichophyton rubrum; WO (Wolle)): 18 mm
